In ChEMBL document CHEMBL1151896, “3D QSAR of novel estrogen-RGD peptide conjugates: getting insight into structural dependence of anti-osteoporosis activity and side effect of estrogen in ERT” (Bioorg Med Chem, 2009):
Peptide text beside a SMILES is read from it. * marks the point of attachment. X1 = C[C@]12CC[C@@H]3c4ccc(OCC(=O)*)cc4CC[C@H]3[C@@H]1CCC2=O

Assays:
[1] = system: Mus musculus; assay: Antiosteoporosis activity against ovariectomized ICR mouse assessed as serum calcium level at 110.3 nmol/kg, po after 30 mins; assay type: functional
[2] = system: Mus musculus; assay: Antiosteoporosis activity against ovariectomized ICR mouse assessed as serum phosphorous level at 110.3 nmol/kg, po after 30 mins; assay type: functional
[3] = system: Mus musculus; assay: Antiosteoporosis activity against ovariectomized ICR mouse assessed as serum ALP activity at 110.3 nmol/kg, po after 30 mins; assay type: functional
[4] = system: Mus musculus; assay: Antiosteoporosis activity against ovariectomized ICR mouse assessed as dry femur weight at 110.3 nmol/kg, po after 30 mins; assay type: functional
[5] = system: Mus musculus; assay: Antiosteoporosis activity against ovariectomized ICR mouse assessed as femur ash weight at 110.3 nmol/kg, po after 30 mins; assay type: functional
[6] = system: Mus musculus; assay: Antiosteoporosis activity against ovariectomized ICR mouse assessed as femur length at 110.3 nmol/kg, po after 30 mins; assay type: functional
[7] = system: Mus musculus; assay: Antiosteoporosis activity against ovariectomized ICR mouse assessed as femur calcium content at 110.3 nmol/kg, po after 30 mins; assay type: functional
[8] = system: Mus musculus; assay: Antiosteoporosis activity against ovariectomized ICR mouse assessed as femur phosphorous content at 110.3 nmol/kg, po after 30 mins; assay type: functional
[9] = system: Mus musculus; assay: Antiosteoporosis activity against ovariectomized ICR mouse assessed as mineral content at 110.3 nmol/kg, po after 30 mins; assay type: functional
[10] = system: Mus musculus; assay: Toxicity in ovariectomized ICR mouse assessed as effect on spleen weight at 110.3 nmol/kg, po after 4 weeks; assay type: organism-based; settings: in vivo, 672 h
[11] = system: Mus musculus; assay: Toxicity in ovariectomized ICR mouse assessed as effect on lung weight at 110.3 nmol/kg, po after 4 weeks; assay type: organism-based; settings: in vivo, 672 h
[12] = system: Mus musculus; assay: Toxicity in ovariectomized ICR mouse assessed as effect on kidney weight at 110.3 nmol/kg, po after 4 weeks; assay type: organism-based; settings: in vivo, 672 h
[13] = system: Mus musculus; assay: Toxicity in ovariectomized ICR mouse assessed as effect on liver weight at 110.3 nmol/kg, po after 4 weeks; assay type: organism-based; settings: in vivo, 672 h
[14] = system: Mus musculus; assay: Toxicity in ovariectomized ICR mouse assessed as effect on body weight at 110.3 nmol/kg, po after 4 weeks; assay type: organism-based; settings: in vivo, 672 h
[15] = system: Mus musculus; assay: Toxicity in ovariectomized ICR mouse assessed as tail bleeding time at 110.3 nmol/kg, po for 30 mins; assay type: organism-based; settings: in vivo, 0.5 h
[16] = system: Mus musculus; assay: Toxicity in ovariectomized ICR mouse assessed as tail bleeding time at 110.3 nmol/kg, po for 90 mins; assay type: organism-based; settings: in vivo, 1.5 h
[17] = system: Mus musculus; assay: Toxicity in ovariectomized ICR mouse assessed as change in uterine weight at 110.3 nmol/kg, po after 4 weeks; assay type: organism-based; settings: in vivo, 672 h

Structure (SMILES) | Activity [1] [mM] | Activity [2] [mM] | Activity [3] [U/L] | Activity [4] [mg] | Activity [5] [mg] | Activity [6] [cm] | Activity [7] [%] | Activity [8] [%] | Activity [9] [%] | Activity [10] | Activity [11] | Activity [12] | Activity [13] | Activity [14] | Activity [15] [s] | Activity [16] [s] | Activity [17] [g]
C[C@]12CC[C@@H]3c4ccc(OCC(=O)N[C@@H](CCCNC(=N)N)C(=O)NCC(=O)N[C@@H](CC(=O)O)C(=O)N[C@@H](Cc5ccccc5)C(=O)N[C@@H](CCCNC(=N)N)C(=O)NCC(=O)N[C@@H](CC(=O)O)C(=O)N[C@@H](Cc5ccccc5)C(=O)O)cc4CC[C@H]3[C@@H]1CCC2=O (X1-RGDFRGDF-OH) | 3.15 | 3.01 | 15.06 | 55.26 | 35.24 | 1.64 | 59.92 | 20.33 | 0.61 | Non-toxic | Non-toxic | Non-toxic | Non-toxic | Non-toxic | 579 | 574 | 0.051
C[C@]12CC[C@@H]3c4ccc(OCC(=O)N[C@@H](CCCNC(=N)N)C(=O)NCC(=O)N[C@@H](CC(=O)O)C(=O)N[C@@H](CO)C(=O)N[C@@H](CCCNC(=N)N)C(=O)NCC(=O)N[C@@H](CC(=O)O)C(=O)N[C@@H](CO)C(=O)O)cc4CC[C@H]3[C@@H]1CCC2=O (X1-RGDSRGDS-OH) | 3.08 | 2.96 | 13.8 | 55.9 | 35.78 | 1.67 | 59.95 | 21.76 | 0.62 | Non-toxic | Non-toxic | Non-toxic | Non-toxic | Non-toxic | 588 | 516 | 0.058
CC(C)[C@H](NC(=O)[C@H](CC(=O)O)NC(=O)CNC(=O)[C@H](CCCNC(=N)N)NC(=O)[C@@H](NC(=O)[C@H](CC(=O)O)NC(=O)CNC(=O)[C@H](CCCNC(=N)N)NC(=O)COc1ccc2c(c1)CC[C@@H]1[C@@H]2CC[C@]2(C)C(=O)CC[C@@H]12)C(C)C)C(=O)O (X1-RGDVRGDV-OH) | 3 | 3.22 | 13.27 | 55.39 | 35.29 | 1.66 | 60.5 | 21.84 | 0.62 | Non-toxic | Non-toxic | Non-toxic | Non-toxic | Non-toxic | 582 | 514 | 0.059
